Experiments:
[1] = target: Mitogen-activated protein kinase kinase kinase 20 (Homo sapiens, UniProt Q9NYL2); assay: NanoBRET (MAP3K20)
[2] = system: Tyrosine-protein kinase ABL1 (Homo sapiens), P00519 [F317I]; settings: Compound concentration 100.0 nM
[3] = system: Tyrosine-protein kinase ABL1 (Homo sapiens), P00519 [F317L]; settings: Compound concentration 100.0 nM
[4] = target: NUAK family SNF1-like kinase 1 (Homo sapiens) (UniProt O60285); settings: Compound concentration 100.0 nM
[5] = target: Aurora kinase A (Homo sapiens) (UniProt O14965); settings: Compound concentration 100.0 nM
[6] = target: Serine/threonine-protein kinase BRSK2 (Homo sapiens) (UniProt Q8IWQ3); settings: Compound concentration 100.0 nM
[7] = target: Calcium/calmodulin-dependent protein kinase type 1G (Homo sapiens) (UniProt Q96NX5); settings: Compound concentration 100.0 nM
Calcium/calmodulin-dependent protein kinase type 1G (Homo sapiens), sequence (Q96NX5 whole entry): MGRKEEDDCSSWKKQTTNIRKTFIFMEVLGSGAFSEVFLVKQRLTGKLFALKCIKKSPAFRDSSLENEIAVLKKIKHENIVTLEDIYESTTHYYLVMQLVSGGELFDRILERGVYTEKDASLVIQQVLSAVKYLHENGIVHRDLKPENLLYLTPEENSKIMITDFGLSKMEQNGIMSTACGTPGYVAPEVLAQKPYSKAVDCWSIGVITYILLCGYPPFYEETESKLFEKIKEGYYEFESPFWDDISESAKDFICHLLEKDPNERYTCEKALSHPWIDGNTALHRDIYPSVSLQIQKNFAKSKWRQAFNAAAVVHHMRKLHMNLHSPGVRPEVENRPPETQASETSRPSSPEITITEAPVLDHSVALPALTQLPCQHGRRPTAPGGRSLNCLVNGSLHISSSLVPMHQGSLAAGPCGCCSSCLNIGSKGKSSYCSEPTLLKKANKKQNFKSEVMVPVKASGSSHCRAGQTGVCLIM

[8] = target: Cyclin-dependent kinase 4 (Homo sapiens) (UniProt P11802); settings: Compound concentration 100.0 nM
Cyclin-dependent kinase 4 (Homo sapiens), sequence (P11802 whole entry): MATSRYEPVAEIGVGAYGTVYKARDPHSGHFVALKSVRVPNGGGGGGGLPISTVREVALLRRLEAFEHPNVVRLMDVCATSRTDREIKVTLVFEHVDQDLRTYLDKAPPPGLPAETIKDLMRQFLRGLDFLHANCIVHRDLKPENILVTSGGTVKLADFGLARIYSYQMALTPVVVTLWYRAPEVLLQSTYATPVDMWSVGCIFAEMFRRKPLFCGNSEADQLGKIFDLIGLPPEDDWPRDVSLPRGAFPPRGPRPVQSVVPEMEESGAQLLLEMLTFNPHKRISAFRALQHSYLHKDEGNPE

[9] = target: Dual specificity protein kinase CLK4 (Homo sapiens) (UniProt Q9HAZ1); settings: Compound concentration 100.0 nM
[10] = target: Casein kinase I isoform delta (Homo sapiens) (UniProt P48730); settings: Compound concentration 100.0 nM
[11] = target: Serine/threonine-protein kinase 17A (Homo sapiens) (UniProt Q9UEE5); settings: Compound concentration 100.0 nM
[12] = system: Epidermal growth factor receptor (Homo sapiens), P00533 [L861Q]; settings: Compound concentration 100.0 nM
[13] = target: Ephrin type-A receptor 3 (Homo sapiens) (UniProt P29320); settings: Compound concentration 100.0 nM
[14] = target: Ephrin type-B receptor 3 (Homo sapiens) (UniProt P54753); settings: Compound concentration 100.0 nM
Ephrin type-B receptor 3 (Homo sapiens), sequence (P54753 whole entry): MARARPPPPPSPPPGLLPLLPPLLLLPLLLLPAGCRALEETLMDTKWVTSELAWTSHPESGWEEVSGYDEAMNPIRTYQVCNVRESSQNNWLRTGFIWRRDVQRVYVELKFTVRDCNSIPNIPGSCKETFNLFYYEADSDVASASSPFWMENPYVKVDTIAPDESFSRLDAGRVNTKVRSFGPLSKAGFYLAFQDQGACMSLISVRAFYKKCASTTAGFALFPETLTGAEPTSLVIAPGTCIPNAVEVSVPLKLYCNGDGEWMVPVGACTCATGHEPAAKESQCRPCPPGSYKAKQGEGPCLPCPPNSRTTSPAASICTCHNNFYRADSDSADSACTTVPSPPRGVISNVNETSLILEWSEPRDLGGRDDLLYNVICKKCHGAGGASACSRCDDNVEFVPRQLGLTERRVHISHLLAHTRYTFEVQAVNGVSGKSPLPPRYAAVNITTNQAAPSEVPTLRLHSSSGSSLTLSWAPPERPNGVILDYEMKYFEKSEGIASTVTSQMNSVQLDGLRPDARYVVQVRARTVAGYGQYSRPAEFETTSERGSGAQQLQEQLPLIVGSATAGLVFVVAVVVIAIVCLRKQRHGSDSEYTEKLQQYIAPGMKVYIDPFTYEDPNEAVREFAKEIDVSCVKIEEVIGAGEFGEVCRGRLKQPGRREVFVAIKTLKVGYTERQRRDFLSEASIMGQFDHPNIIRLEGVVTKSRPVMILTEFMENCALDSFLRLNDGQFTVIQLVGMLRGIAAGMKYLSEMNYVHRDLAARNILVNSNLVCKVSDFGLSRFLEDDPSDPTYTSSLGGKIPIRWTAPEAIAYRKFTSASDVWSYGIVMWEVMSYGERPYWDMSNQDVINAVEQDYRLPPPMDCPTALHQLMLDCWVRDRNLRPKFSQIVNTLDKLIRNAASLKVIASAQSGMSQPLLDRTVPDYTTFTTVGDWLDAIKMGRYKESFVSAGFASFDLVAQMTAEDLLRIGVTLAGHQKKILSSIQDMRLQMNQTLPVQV

[15] = target: Tyrosine-protein kinase Fgr (Homo sapiens) (UniProt P09769); settings: Compound concentration 100.0 nM
[16] = system: Receptor-type tyrosine-protein kinase FLT3 (Homo sapiens), P36888 [UNDEFINED MUTATION]; settings: Compound concentration 100.0 nM
[17] = target: Serine/threonine-protein kinase ICK (Homo sapiens) (UniProt Q9UPZ9); settings: Compound concentration 100.0 nM
Serine/threonine-protein kinase ICK (Homo sapiens), sequence (Q9UPZ9 whole entry, the tested form may be a part): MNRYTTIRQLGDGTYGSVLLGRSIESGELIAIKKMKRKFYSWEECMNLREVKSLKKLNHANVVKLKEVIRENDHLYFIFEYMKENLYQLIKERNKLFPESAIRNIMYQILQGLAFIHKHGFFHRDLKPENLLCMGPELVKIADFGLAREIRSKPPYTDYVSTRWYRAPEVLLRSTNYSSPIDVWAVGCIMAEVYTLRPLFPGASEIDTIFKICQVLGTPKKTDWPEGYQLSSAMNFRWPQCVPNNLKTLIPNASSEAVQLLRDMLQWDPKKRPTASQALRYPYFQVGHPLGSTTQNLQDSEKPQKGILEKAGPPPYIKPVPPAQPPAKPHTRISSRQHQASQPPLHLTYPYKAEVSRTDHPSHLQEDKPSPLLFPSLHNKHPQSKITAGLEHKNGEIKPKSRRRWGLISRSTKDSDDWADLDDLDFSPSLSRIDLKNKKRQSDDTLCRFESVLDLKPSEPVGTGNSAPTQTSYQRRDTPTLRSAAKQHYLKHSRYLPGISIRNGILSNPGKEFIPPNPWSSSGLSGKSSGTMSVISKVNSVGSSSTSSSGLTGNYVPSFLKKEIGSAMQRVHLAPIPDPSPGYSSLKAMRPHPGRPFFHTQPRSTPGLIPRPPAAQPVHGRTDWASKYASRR

[18] = target: LIM domain kinase 2 (Homo sapiens) (UniProt P53671); settings: Compound concentration 100.0 nM
[19] = target: MAP kinase-activated protein kinase 5 (Homo sapiens) (UniProt Q8IW41); settings: Compound concentration 100.0 nM
[20] = target: Serine/threonine-protein kinase MARK2 (Homo sapiens) (UniProt Q7KZI7); settings: Compound concentration 100.0 nM
[21] = target: Mitogen-activated protein kinase kinase kinase 9 (Homo sapiens) (UniProt P80192); settings: Compound concentration 100.0 nM
[22] = target: Mitogen-activated protein kinase kinase kinase 10 (Homo sapiens) (UniProt Q02779); settings: Compound concentration 100.0 nM
[23] = target: Serine/threonine-protein kinase 38-like (Homo sapiens) (UniProt Q9Y2H1); settings: Compound concentration 100.0 nM
[24] = target: Serine/threonine-protein kinase Nek3 (Homo sapiens) (UniProt P51956); settings: Compound concentration 100.0 nM
[25] = target: Serine/threonine-protein kinase Nek5 (Homo sapiens) (UniProt Q6P3R8); settings: Compound concentration 100.0 nM
[26] = target: Mitogen-activated protein kinase kinase kinase 14 (Homo sapiens) (UniProt Q99558); settings: Compound concentration 100.0 nM
[27] = target: Serine/threonine-protein kinase NLK (Homo sapiens) (UniProt Q9UBE8); settings: Compound concentration 100.0 nM
[28] = target: Serine/threonine-protein kinase OSR1 (Homo sapiens) (UniProt O95747); settings: Compound concentration 100.0 nM
[29] = target: Serine/threonine-protein kinase PAK 5 (Homo sapiens) (UniProt Q9P286); settings: Compound concentration 100.0 nM
[30] = target: Phosphatidylinositol 3-kinase C2 domain-containing subunit gamma (Homo sapiens) (UniProt O75747); settings: Compound concentration 100.0 nM
[31] = target: Phosphatidylinositol 4,5-bisphosphate 3-kinase catalytic subunit alpha isoform (Homo sapiens) (UniProt P42336); settings: Compound concentration 100.0 nM
[32] = target: Phosphatidylinositol 4,5-bisphosphate 3-kinase catalytic subunit beta isoform (Homo sapiens) (UniProt P42338); settings: Compound concentration 100.0 nM
[33] = target: Serine/threonine-protein kinase PLK4 (Homo sapiens) (UniProt O00444); settings: Compound concentration 100.0 nM
[34] = target: cGMP-dependent protein kinase 2 (Homo sapiens) (UniProt Q13237); settings: Compound concentration 100.0 nM
[35] = target: Receptor-interacting serine/threonine-protein kinase 1 (Homo sapiens) (UniProt Q13546); settings: Compound concentration 100.0 nM
[36] = target: Ribosomal protein S6 kinase alpha-4 (Homo sapiens) (UniProt O75676); settings: Compound concentration 100.0 nM
Ribosomal protein S6 kinase alpha-4 (Homo sapiens), sequence (O75676 whole entry, looked up): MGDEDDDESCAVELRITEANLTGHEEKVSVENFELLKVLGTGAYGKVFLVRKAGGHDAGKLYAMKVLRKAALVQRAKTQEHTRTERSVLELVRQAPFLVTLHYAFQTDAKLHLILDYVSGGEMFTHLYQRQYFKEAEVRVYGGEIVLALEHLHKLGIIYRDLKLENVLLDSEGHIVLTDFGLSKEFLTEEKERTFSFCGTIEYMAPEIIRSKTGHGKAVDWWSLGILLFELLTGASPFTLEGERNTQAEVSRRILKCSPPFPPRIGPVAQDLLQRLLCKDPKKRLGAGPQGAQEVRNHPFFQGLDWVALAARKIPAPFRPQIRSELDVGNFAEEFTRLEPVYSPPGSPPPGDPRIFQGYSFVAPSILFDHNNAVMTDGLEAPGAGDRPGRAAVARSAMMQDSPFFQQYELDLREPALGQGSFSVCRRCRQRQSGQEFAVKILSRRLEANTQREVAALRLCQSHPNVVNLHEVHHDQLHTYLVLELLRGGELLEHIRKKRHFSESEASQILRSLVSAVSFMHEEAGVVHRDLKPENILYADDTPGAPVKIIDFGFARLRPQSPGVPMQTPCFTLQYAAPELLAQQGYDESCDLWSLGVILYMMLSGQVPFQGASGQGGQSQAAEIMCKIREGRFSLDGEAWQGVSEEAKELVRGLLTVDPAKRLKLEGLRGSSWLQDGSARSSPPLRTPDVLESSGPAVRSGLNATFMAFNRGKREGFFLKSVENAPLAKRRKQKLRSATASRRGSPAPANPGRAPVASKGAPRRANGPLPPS

[37] = target: Uncharacterized serine/threonine-protein kinase SBK3 (Homo sapiens) (UniProt P0C264); settings: Compound concentration 100.0 nM
[38] = target: STE20-like serine/threonine-protein kinase (Homo sapiens) (UniProt Q9H2G2); settings: Compound concentration 100.0 nM
[39] = target: SNF-related serine/threonine-protein kinase (Homo sapiens) (UniProt Q9NRH2); settings: Compound concentration 100.0 nM
SNF-related serine/threonine-protein kinase (Homo sapiens), sequence (Q9NRH2 whole entry): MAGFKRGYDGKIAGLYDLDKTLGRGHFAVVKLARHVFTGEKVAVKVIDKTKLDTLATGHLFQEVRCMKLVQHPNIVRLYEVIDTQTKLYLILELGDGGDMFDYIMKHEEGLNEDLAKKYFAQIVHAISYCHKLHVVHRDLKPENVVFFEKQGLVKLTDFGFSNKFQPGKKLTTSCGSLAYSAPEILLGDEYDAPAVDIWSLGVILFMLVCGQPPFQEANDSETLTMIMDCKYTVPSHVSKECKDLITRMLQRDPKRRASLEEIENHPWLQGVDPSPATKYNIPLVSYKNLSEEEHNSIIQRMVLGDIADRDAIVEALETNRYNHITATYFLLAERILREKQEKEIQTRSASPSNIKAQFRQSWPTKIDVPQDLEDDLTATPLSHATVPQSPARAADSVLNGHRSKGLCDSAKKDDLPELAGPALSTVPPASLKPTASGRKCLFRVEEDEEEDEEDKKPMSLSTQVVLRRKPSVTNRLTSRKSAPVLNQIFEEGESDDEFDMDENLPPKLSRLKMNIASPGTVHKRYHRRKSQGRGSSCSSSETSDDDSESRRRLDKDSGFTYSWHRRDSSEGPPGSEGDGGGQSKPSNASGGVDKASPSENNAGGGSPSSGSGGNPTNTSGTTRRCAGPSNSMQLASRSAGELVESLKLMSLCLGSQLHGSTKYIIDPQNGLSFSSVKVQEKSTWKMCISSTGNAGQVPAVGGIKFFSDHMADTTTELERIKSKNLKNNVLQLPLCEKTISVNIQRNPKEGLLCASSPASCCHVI

[40] = target: TGF-beta receptor type-2 (Homo sapiens) (UniProt P37173); settings: Compound concentration 100.0 nM
[41] = target: Serine/threonine-protein kinase WNK2 (Homo sapiens) (UniProt Q9Y3S1); settings: Compound concentration 100.0 nM
[42] = target: 5-hydroxytryptamine receptor 1A (Homo sapiens) (UniProt P08908); settings: Compound concentration 10.0 uM
[43] = target: 5-hydroxytryptamine receptor 1D (Homo sapiens) (UniProt P28221); settings: Compound concentration 10.0 uM
[44] = target: 5-hydroxytryptamine receptor 1E (Homo sapiens) (UniProt P28566); settings: Compound concentration 10.0 uM
5-hydroxytryptamine receptor 1E (Homo sapiens), sequence (P28566 whole entry): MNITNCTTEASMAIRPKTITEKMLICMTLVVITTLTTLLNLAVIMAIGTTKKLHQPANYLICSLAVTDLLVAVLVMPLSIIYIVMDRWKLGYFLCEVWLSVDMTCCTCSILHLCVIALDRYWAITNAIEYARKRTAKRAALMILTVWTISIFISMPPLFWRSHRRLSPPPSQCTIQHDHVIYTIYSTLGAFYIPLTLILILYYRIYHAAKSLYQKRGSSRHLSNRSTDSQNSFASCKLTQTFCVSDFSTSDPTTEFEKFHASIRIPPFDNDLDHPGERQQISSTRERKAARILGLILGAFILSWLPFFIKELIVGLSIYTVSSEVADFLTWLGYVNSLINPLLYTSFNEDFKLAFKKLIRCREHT

[45] = target: Sodium-dependent noradrenaline transporter (Homo sapiens) (UniProt P23975); settings: Compound concentration 10.0 uM
Sodium-dependent noradrenaline transporter (Homo sapiens), sequence (P23975 whole entry): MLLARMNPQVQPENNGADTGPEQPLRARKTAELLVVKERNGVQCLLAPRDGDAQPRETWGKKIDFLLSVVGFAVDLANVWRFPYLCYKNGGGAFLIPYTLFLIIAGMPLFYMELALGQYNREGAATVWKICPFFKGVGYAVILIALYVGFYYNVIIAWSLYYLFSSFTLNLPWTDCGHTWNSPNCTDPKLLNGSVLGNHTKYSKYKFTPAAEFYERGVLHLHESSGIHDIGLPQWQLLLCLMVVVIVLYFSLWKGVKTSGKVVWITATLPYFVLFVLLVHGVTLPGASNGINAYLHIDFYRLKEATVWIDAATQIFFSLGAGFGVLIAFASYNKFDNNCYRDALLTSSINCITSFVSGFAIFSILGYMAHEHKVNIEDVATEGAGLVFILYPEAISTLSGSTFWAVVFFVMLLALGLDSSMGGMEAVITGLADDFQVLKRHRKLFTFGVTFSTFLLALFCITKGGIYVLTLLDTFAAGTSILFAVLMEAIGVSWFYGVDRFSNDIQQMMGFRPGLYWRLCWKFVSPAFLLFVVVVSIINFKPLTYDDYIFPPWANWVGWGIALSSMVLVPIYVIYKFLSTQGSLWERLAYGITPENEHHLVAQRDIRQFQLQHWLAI

How did the IC50 [1] turn out when O=C(NCCCC1CCCCC1)c1ccc(CNC(=O)c2cnn(-c3ccccc3)c2C(F)(F)F)cc1 [SR-321] was run?
The IC50 was 5.8 µM (not active).

What about the residual activity [2] of the same molecule?
The residual activity was 100%.

And the residual activity [3]?
The residual activity was 82%.

What about the residual activity [4] of the same molecule?
Its residual activity is 100%.

And the residual activity [5]?
The residual activity was 100%.

What about the residual activity [6] of the same molecule?
Its residual activity is 100%.

And the residual activity [7]?
Its residual activity is 100%.

And the residual activity [8]?
Its residual activity is 100%.

And the residual activity [9]?
The residual activity was 100%.

What about the residual activity [10] of the same molecule?
The residual activity was 100%.

And the residual activity [11]?
The residual activity was 100%.

What about the residual activity [12] of the same molecule?
Its residual activity is 100%.

What about the residual activity [13] of the same molecule?
The residual activity was 91%.

What about the residual activity [14] of the same molecule?
The residual activity was 79%.

And the residual activity [15]?
The residual activity was 95%.

And the residual activity [16]?
The residual activity was 100%.

What about the residual activity [17] of the same molecule?
Its residual activity is 79%.

What about the residual activity [18] of the same molecule?
Its residual activity is 100%.

What about the residual activity [19] of the same molecule?
Its residual activity is 100%.

What about the residual activity [20] of the same molecule?
Its residual activity is 100%.

And the residual activity [21]?
The residual activity was 100%.

And the residual activity [22]?
The residual activity was 87%.

And the residual activity [23]?
Its residual activity is 20%.

What about the residual activity [24] of the same molecule?
The residual activity was 100%.

And the residual activity [25]?
Its residual activity is 100%.

What about the residual activity [26] of the same molecule?
Its residual activity is 90%.

And the residual activity [27]?
The residual activity was 100%.

What about the residual activity [28] of the same molecule?
Its residual activity is 91%.

What about the residual activity [29] of the same molecule?
The residual activity was 100%.

What about the residual activity [30] of the same molecule?
Its residual activity is 100%.

What about the residual activity [31] of the same molecule?
The residual activity was 100%.

And the residual activity [32]?
The residual activity was 100%.

What about the residual activity [33] of the same molecule?
Its residual activity is 96%.

And the residual activity [34]?
The residual activity was 89%.

And the residual activity [35]?
Its residual activity is 89%.

What about the residual activity [36] of the same molecule?
Its residual activity is 90%.

And the residual activity [37]?
Its residual activity is 100%.

And the residual activity [38]?
Its residual activity is 100%.

What about the residual activity [39] of the same molecule?
Its residual activity is 100%.

What about the residual activity [40] of the same molecule?
Its residual activity is 100%.

What about the residual activity [41] of the same molecule?
The residual activity was 100%.

What about the inhibition [42] of the same molecule?
Its inhibition is 20.1%.

And the inhibition [43]?
Its inhibition is -8.35%.

What about the inhibition [44] of the same molecule?
The inhibition was -6.92%.

What about the inhibition [45] of the same molecule?
Its inhibition is -1.78%.

For Nc1c(C(=O)NCc2ccc(C(=O)NCCCC3CCCCC3)cc2)cnn1-c1ccccc1 [SR-318], which IC50 [1] is on record?
Its IC50 is 0.91 µM (not active).

What about the residual activity [2] of the same molecule?
Its residual activity is 92%.

What about the residual activity [3] of the same molecule?
Its residual activity is 100%.

What about the residual activity [4] of the same molecule?
The residual activity was 100%.

What about the residual activity [5] of the same molecule?
The residual activity was 100%.

What about the residual activity [6] of the same molecule?
Its residual activity is 79%.

And the residual activity [7]?
The residual activity was 100%.

And the residual activity [8]?
The residual activity was 100%.

What about the residual activity [9] of the same molecule?
The residual activity was 96%.

And the residual activity [10]?
The residual activity was 100%.

What about the residual activity [11] of the same molecule?
Its residual activity is 100%.

And the residual activity [12]?
The residual activity was 90%.

What about the residual activity [13] of the same molecule?
Its residual activity is 100%.

And the residual activity [14]?
Its residual activity is 96%.

And the residual activity [15]?
The residual activity was 100%.

What about the residual activity [16] of the same molecule?
Its residual activity is 90%.

And the residual activity [17]?
The residual activity was 100%.

And the residual activity [18]?
Its residual activity is 100%.

And the residual activity [19]?
Its residual activity is 93%.

And the residual activity [20]?
The residual activity was 65%.

And the residual activity [21]?
The residual activity was 96%.

What about the residual activity [22] of the same molecule?
Its residual activity is 85%.

And the residual activity [23]?
Its residual activity is 44%.

And the residual activity [24]?
The residual activity was 100%.

What about the residual activity [25] of the same molecule?
The residual activity was 99%.

And the residual activity [26]?
The residual activity was 100%.

What about the residual activity [27] of the same molecule?
The residual activity was 96%.

And the residual activity [28]?
Its residual activity is 100%.

What about the residual activity [29] of the same molecule?
Its residual activity is 100%.

And the residual activity [30]?
Its residual activity is 100%.

And the residual activity [31]?
The residual activity was 100%.

What about the residual activity [32] of the same molecule?
The residual activity was 100%.

And the residual activity [33]?
The residual activity was 100%.

And the residual activity [34]?
The residual activity was 96%.

And the residual activity [35]?
Its residual activity is 100%.

And the residual activity [36]?
The residual activity was 98%.

What about the residual activity [37] of the same molecule?
The residual activity was 87%.

And the residual activity [38]?
Its residual activity is 80%.

What about the residual activity [39] of the same molecule?
Its residual activity is 91%.

What about the residual activity [40] of the same molecule?
Its residual activity is 99%.

What about the residual activity [41] of the same molecule?
The residual activity was 100%.

And the inhibition [42]?
The inhibition was -1.43%.

What about the inhibition [43] of the same molecule?
Its inhibition is 27.6%.

And the inhibition [44]?
The inhibition was 1%.

And the inhibition [45]?
Its inhibition is 13.5%.

— ChEMBL document CHEMBL4507315 (2021)
